Assay [1] concerns the target T1, α1G T-type calcium channel (Homo sapiens, UniProt O43497).
T1 construct: host or cells: HEK293
The assay is described as follows: Assay for % inhibiting activity against T-type calcium channel using FDSS6000 (fluo-3 calcium imaging, KCl activation). Type of assay: cell-based. Conditions: 10 μM; HEK293 cells stably expressing α1G T-type calcium channel and Kir2.1; compounds of the examples. A digest of the protocol:
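Percent inhibition derived from […] area against untreated control (100%), after 75 s compound pre-exposure and 75 mM KCl activation. Cells: HEK293 with stable α1G plus Kir2.1, fluo-3/AM-labelled (5 μM), assayed in pH 7.4 HEPES containing 10 mM CaCl2.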

In assay [2] the target is T1, α1G T-type calcium channel. The assay is described as follows: Electrophysiological whole cell patch clamp measurement of T-type calcium channel current in HEK293 cells. Conditions: HEK293 cells expressing α1G; for HEK293cell (% Inhibition) 10 μM: inhibition of peak current; for IC50: read-out: IC50 (a1G). The format is cell-based. The protocol: In the present invention, in order to examine an efficient inhibitor against the T-type calcium channel, a primary assay for T-type calcium channel inhibiting activity was conducted by a high-efficient assay using FDSS6000, wherein mammal HEK293 cell lines (originated from human kidney carcinoma cells) that specifically express α1G of the T-type calcium channel was used for primary assay. Through the primary assay, compounds that show meaningful inhibition effects were selected. The selected compounds were used in a second assay for T-type calcium channel inhibiting activity using an electrophysiological whole cell patch clamp method, wherein mammal HEK293 cell lines (originated from human kidney carcinoma cells) that specifically express α1G of the T-type calcium channel was used for the second assay. Mibefradil, which had been developed as a T-type calcium channel inhibitor, was used as a reference.
10% Fetal bovine serum (FBS) and 1% penicillin/streptomycin (v/v) were added to Dulbecco's modified Eagle's medium (DMEM), to be used as a media solution. The cells were cultured in an incubator under a wet condition of 95% air/5% CO2 and a temperature of 36.5° C. The media solution was refreshed every 3 or 4 days, and the cells were sub-cultured every week. Only the cells that expressed α1G T-type calcium channel were cultured using a G-418 (0.5 mg/ml) solution. The recording of the cells used in the T-type calcium channel activity analysis was conducted at 2-7 days after the cells were culturing on a cover slip coated with poly-L-lysine (0.5 mg/ml) when conducting every sub-culture. For analysis at a single cell level, the T-type calcium channel current was measured by an electrophysiological whole cell patch clamp method using EPC-9 amplifier (HEKA, German).
As solutions for analyzing T-type calcium channel activity, a solution including NaCl 140 mM, CaCl2 2 mM, and HEPES10 mM (pH 7.4, Sigma; 4-(2-hydroxyethyl)piperazine-1-ethanesulfonic acid) was used as an extracellular solution, and a solution including KCl 130 mM, HEPES 10 mM (Sigma), EGTA 11 mM (ethylene glycol-bis(2-aminoethylether)-N,N,N′,N′-tetraacetic acid, Sigma), and MgATP 5 mM (pH 7.4, Sigma) was used as an intracellular solution. The protocol for T-type calcium channel activity that is activated at low voltage is as follows. A micro-glass electrode with resistance of 3-4 MΩ wherein the above-prepared intracellular solution was filled was pricked into a single cell, to make a whole-cell recording mode. Thereafter, the cell membrane potential was fixed to −100 mV, and then the inward current due to the T-type calcium channel activity when hypopolarizing to −30 mV (50 ms duration) was measured every 10 seconds.
Each compound to be tested was dissolved in 100% dimethylsulfoxide (DMSO) to make a 10 mM stock solution. The effect of the compound on the T-type calcium channel current compound was initially examined in the stock solution with the 1000-times diluted concentration of 10 μM (containing 0.1% DMSO) and then examined in the solution with the concentration for IC50 measurement (mostly 0.1 to 100 μM), to obtain an IC50 value. More specifically, the cells were treated in each compound together with the extracellular solution for 30 to 60 seconds, and the inhibition level of peak current induced by the compound was calculated as a percentage, to obtain the % inhibition value as shown in Table 4.

T1 sequence (O43497 whole entry): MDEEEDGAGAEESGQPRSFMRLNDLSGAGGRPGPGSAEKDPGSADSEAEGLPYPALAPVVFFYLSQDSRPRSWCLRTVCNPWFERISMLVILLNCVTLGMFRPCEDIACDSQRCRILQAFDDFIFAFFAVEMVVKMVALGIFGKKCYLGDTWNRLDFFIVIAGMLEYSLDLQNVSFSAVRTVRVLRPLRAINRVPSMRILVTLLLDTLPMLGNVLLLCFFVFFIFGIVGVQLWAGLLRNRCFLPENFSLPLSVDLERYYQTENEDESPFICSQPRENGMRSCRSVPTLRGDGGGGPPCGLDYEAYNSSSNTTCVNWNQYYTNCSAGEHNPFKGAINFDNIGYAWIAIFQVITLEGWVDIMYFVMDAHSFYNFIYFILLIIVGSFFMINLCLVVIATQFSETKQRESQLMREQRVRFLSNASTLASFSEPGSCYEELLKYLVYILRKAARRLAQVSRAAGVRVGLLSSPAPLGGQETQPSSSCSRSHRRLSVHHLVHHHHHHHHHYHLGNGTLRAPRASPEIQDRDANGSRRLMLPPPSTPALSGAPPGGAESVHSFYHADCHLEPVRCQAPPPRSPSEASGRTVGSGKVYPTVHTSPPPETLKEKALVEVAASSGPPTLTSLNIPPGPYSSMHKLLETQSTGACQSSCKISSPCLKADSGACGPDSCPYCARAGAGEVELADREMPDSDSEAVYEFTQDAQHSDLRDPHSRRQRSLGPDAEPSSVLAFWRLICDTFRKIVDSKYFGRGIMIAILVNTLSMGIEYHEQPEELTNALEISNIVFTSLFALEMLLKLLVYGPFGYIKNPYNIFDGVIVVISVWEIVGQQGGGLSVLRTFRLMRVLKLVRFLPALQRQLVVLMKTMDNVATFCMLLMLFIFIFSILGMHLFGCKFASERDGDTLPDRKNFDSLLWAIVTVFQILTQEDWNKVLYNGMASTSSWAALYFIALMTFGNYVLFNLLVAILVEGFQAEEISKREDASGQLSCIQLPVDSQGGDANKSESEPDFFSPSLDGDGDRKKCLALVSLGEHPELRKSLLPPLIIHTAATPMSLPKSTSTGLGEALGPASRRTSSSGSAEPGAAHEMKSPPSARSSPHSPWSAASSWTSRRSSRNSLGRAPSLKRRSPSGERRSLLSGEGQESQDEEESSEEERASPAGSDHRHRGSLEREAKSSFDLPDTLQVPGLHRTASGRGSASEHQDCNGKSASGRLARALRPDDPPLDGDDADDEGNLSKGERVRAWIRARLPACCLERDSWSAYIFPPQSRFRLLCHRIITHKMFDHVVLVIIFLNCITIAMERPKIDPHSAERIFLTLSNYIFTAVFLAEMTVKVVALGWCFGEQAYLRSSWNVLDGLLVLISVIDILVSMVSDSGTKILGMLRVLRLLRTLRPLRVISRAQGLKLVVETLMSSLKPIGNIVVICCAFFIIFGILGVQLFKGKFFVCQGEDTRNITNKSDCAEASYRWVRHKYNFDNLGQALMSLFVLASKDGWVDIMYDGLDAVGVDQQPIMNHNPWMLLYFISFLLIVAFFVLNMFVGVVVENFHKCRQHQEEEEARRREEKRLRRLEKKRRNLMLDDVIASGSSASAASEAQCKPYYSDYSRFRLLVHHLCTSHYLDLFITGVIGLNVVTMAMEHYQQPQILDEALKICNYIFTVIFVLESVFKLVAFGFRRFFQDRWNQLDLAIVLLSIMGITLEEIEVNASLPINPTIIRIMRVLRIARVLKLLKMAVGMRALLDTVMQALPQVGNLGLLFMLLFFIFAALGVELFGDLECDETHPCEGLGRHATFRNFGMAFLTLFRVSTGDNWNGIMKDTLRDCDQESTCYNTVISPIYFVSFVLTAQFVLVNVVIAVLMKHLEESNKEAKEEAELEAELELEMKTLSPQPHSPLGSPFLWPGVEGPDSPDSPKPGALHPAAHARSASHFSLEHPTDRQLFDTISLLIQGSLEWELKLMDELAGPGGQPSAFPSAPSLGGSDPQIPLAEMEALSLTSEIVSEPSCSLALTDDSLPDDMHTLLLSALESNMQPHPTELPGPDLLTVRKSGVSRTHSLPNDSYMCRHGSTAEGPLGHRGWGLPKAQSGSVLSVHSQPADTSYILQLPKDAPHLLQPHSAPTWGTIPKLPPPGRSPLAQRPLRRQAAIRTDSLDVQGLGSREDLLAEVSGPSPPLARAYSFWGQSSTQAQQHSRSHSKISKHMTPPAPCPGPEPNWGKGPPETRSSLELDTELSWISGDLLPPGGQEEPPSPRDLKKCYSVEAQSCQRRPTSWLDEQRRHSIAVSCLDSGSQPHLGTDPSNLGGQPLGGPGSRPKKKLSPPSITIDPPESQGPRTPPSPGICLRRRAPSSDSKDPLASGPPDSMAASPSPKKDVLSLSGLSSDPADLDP

What is called IC50 is the concentration at which inhibition is half-maximal. With “(2-cyclohexylimino-3-methyl-1,3-thiazolidine-4-yl)-N-(2-fluoro-5-nitrophenyl)-acetamide hydrochloride [KHG23360]”, the “FDSS (% inhibition)/10uM” value in assay [1] was 66.64%. In addition, in assay [2], the “HEK293cell (% Inhibition) 10 μM” value came to 87.8 ± 2.2% and the IC50 was 780 ± 80 nM.
Consider “(2-cyclohexylimino-3-methyl-1,3-thiazolidine-4-yl)-N-(2-trifluoromethylphenyl)-acetamide hydrochloride [KHG24083]”, for which the “FDSS (% inhibition)/10uM” value in assay [1] came out at 47.92%. Also, in assay [2], the “HEK293cell (% Inhibition) 10 μM” value is 76.5 ± 2.3% and the IC50 is 3630 ± 540 nM.
In the same order, the values of “(2-cyclohexylimino-3-methyl-1,3-thiazolidine-4-yl)-N-(3,5-dichlorophenyl)-acetamide hydrochloride [KHG23356]” are 60.46%, 97.0 ± 0.7% and 230 ± 10 nM.
In the same order, the values of “(2-cyclohexylimino-3-methyl-1,3-thiazolidine-4-yl)-N-(3,5-ditrifluoromethylphenyl)-acetamide hydrochloride [KHG24075]” are 73.72%, 94.1 ± 1.5% and 320 ± 20 nM.
The like results for “(2-cyclohexylimino-3-methyl-1,3-thiazolidine-4-yl)-N-(3-chloro-4-methylphenyl)-acetamide hydrochloride [KHG24072]” were, in that order, 63.5%, 91.2 ± 1.6% and 990 ± 30 nM.
As for “(2-cyclohexylimino-3-methyl-1,3-thiazolidine-4-yl)-N-(3-trifluoromethylphenyl)-acetamide hydrochloride [KHG24084]”, the “FDSS (% inhibition)/10uM” value in assay [1] is 58.61%. Besides, in assay [2], the “HEK293cell (% Inhibition) 10 μM” value is on record as 82.2 ± 1.4% and the IC50 amounted to 2790 ± 110 nM.
The like results for “(2-cyclohexylimino-3-methyl-1,3-thiazolidine-4-yl)-N-(4-bromophenyl)-acetamide hydrochloride [KHG23354]” were, in that order, 54.26%, 83.0 ± 1.4% and 2470 ± 180 nM.
Take “(2-cyclohexylimino-3-methyl-1,3-thiazolidine-4-yl)-N-(4-chloro-2-fluorophenyl)-acetamide hydrochloride [KHG23361]”: in assay [1], the “FDSS (% inhibition)/10uM” value came out at 62.4%. In addition, in assay [2], the “HEK293cell (% Inhibition) 10 μM” value came to 71.4 ± 3.4% and the 50% inhibitory concentration (IC50) was 4090 ± 700 nM.
The like results for “(2-cyclohexylimino-3-methyl-1,3-thiazolidine-4-yl)-N-(4-chlorobenzyl)-acetamide hydrochloride [KHG24113]” were, in that order, 54.13%, 64.8 ± 1.4% and 5400 ± 410 nM.
In the same order, the values of “(2-cyclohexylimino-3-methyl-1,3-thiazolidine-4-yl)-N-(4-chlorophenyl)-acetamide hydrochloride [KHG23362]” are 66.17%, 89.3 ± 0.9% and 530 ± 30 nM.
In the case of “(2-cyclohexylimino-3-methyl-1,3-thiazolidine-4-yl)-N-(4-fluorophenyl)-acetamide hydrochloride [KHG23210]”, the “FDSS (% inhibition)/10uM” value in assay [1] is reported as 46.69%. For the same substance, in assay [2], the “HEK293cell (% Inhibition) 10 μM” value is 59.6 ± 1.5% and the IC50 worked out at 6500 ± 500 nM.
The like results for “(2-cyclohexylimino-3-methyl-1,3-thiazolidine-4-yl)-N-(4-isopropylphenyl)-acetamide hydrochloride [KHG23364]” were, in that order, 53%, 97.0 ± 0.7% and 870 ± 180 nM.
The like results for “(2-cyclohexylimino-3-methyl-1,3-thiazolidine-4-yl)-N-(4-methylphenyl)-acetamide hydrochloride [KHG24077]” were, in that order, 46.41%, 57.0 ± 1.5% and 7220 ± 360 nM.
“(2-cyclohexylimino-3-methyl-1,3-thiazolidine-4-yl)-N-(4-n-butylphenyl)-acetamide hydrochloride [KHG23365]”: the “FDSS (% inhibition)/10uM” value in assay [1] came to 60.16%. For the same substance, in assay [2], the “HEK293cell (% Inhibition) 10 μM” value is given as 97.6 ± 0.5% and the IC50 was found to be 600 ± 60 nM.
The like results for “(2-cyclohexylimino-3-methyl-1,3-thiazolidine-4-yl)-N-(4-phenoxyphenyl)-acetamide hydrochloride [KHG23355]” were, in that order, 58.95%, 88.1 ± 2.0% and 1510 ± 170 nM.
In the same order, the values of “(2-cyclohexylimino-3-methyl-1,3-thiazolidine-4-yl)-N-(4-trifluoromethylphenyl)-acetamide hydrochloride [KHG24074]” are 65.2%, 94.7 ± 0.5% and 660 ± 60 nM.
The like results for “[2-(1-adamantyl)imino-3-methyl-1,3-thiazolidine-4-yl]-N-(3,5-ditrifluoromethylphenyl)-acetamide hydrochloride [KHG24241]” were, in that order, 70.68%, 92.2 ± 0.5% and 170 ± 20 nM.
Regarding “[2-(1-adamantyl)imino-3-methyl-1,3-thiazolidine-4-yl]-N-(4-bromophenyl)-acetamide hydrochloride [KHG24239]”, the “FDSS (% inhibition)/10uM” value in assay [1] was determined as 69.55%. Moreover, in assay [2], the “HEK293cell (% Inhibition) 10 μM” value was determined as 96.5 ± 1.3% and the IC50 is 610 ± 70 nM.
The like results for “[2-(1-adamantyl)imino-3-methyl-1,3-thiazolidine-4-yl]-N-(4-chlorophenyl)-acetamide hydrochloride [KHG24238]” were, in that order, 73.31%, 95.9 ± 1.8% and 530 ± 20 nM.
For “[2-(1-adamantyl)imino-3-methyl-1,3-thiazolidine-4-yl]-N-(4-ethylphenyl)-acetamide hydrochloride [KHG24236]”, the “FDSS (% inhibition)/10uM” value in assay [1] is reported as 69.55%. In addition, in assay [2], the “HEK293cell (% Inhibition) 10 μM” value was determined as 94.4 ± 0.6% and the IC50 was 230 ± 20 nM.
In the same order, the values of “[2-(1-adamantyl)imino-3-methyl-1,3-thiazolidine-4-yl]-N-(4-fluorophenyl)-acetamide hydrochloride [KHG24237]” are 74.81%, 91.2 ± 3.1% and 770 ± 30 nM.
In the same order, the values of “[2-(1-adamantyl)imino-3-methyl-1,3-thiazolidine-4-yl]-N-(4-isopropylphenyl)-acetamide hydrochloride [KHG24243]” are 60.9%, 97.0 ± 1.1% and 50 ± 10 nM.
The like results for “[2-(1-adamantyl)imino-3-methyl-1,3-thiazolidine-4-yl]-N-(4-methylphenyl)-acetamide hydrochloride [KHG24235]” were, in that order, 61.65%, 93.2 ± 1.9% and 1170 ± 80 nM.
Regarding “[2-(1-adamantyl)imino-3-methyl-1,3-thiazolidine-4-yl]-N-(4-phenoxyphenyl)-acetamide hydrochloride [KHG24244]”, the “FDSS (% inhibition)/10uM” value in assay [1] amounted to 53.67%. Further, in assay [2], the “HEK293cell (% Inhibition) 10 μM” value was determined as 90.6 ± 3.6% and the concentration for half-maximal inhibition (IC50) was found to be 920 ± 80 nM.

For the origin of these results see patent US7998989B2, “2-Imino-1,3-thiazoline-based compounds and T-type calcium channel inhibitors containing the same” (Korea Institute of Science and Technology, priority 2007, dated 2011).
